The values that follow come from patent publication US20260115185A1, “QUINOLINE DERIVATIVES WHICH ACT AS KAPPA-OPIOID RECEPTOR ANTAGONISTS” (The Scripps Research Institute, priority 2023, published 2026).

Test [1] deals with T1, kappa opioid receptor (KOR) (Homo sapiens, UniProt P41145).
T1 construct: host or cells: U2OS (Tango OPRK1-bla U2OS)
Kind of test: OPRKappa 1 Tango B-Arrestin Assay, antagonist mode (Tango OPRK1-bla U2OS cells, U50488 EC80 challenge). Type of test: cell-based. The note with it: for Selectivity (MOR/KOR): Kappa selectivity, MOR IC50 / KOR IC50; for IC50: antagonist mode, Tango OPRK1-bla U2OS cells, 6 nM U50488 challenge. A digest of the protocol:
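Tango OPRK1-bla U2OS cells, β-arrestin recruitment read as β-lactamase FRET (CCF4-AM, 460/590 nm emission). Compounds, 10-point 1:3 series from nominal 10 µM in quadruplicate, preincubated 30 min at 37 °C, then challenged with U50488 at 6 nM final (EC80) for 4 h; percent inhibition from median ratio.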

Test [2] has as its target T2, mu opioid receptor (MOR) (Homo sapiens, UniProt P35372).
T2 construct: host or cells: U2OS (Discover X OPRMu1-U2OS, PathHunter)
Kind of test: OPRMu1 Discover X β-arrestin Assay, antagonist mode (U2OS cells, DAMGO EC80 challenge). Type of test: cell-based. Summed up:
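PathHunter U2OS cells with β-gal fragment-complementation readout for β-arrestin recruitment to OPRMu1. Cells were preincubated with compound (10-point, 1:3 series from nominal 10 micromolar) for 30 min at 37 °C, then challenged with 303 nM DAMGO (EC80) for 3 h. Luminescence gave percent inhibition.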

T1 sequence (P41145 whole entry): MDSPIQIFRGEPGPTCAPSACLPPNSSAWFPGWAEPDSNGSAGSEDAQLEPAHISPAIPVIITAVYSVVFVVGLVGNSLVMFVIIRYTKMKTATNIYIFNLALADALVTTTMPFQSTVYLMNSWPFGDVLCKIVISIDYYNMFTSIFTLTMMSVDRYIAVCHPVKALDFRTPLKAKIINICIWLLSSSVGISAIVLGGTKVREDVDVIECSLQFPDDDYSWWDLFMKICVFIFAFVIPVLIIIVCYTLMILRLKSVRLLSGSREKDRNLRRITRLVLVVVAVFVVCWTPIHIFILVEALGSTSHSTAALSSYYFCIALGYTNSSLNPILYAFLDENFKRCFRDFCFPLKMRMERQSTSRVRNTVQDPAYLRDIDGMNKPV
T2 sequence (P35372 whole entry): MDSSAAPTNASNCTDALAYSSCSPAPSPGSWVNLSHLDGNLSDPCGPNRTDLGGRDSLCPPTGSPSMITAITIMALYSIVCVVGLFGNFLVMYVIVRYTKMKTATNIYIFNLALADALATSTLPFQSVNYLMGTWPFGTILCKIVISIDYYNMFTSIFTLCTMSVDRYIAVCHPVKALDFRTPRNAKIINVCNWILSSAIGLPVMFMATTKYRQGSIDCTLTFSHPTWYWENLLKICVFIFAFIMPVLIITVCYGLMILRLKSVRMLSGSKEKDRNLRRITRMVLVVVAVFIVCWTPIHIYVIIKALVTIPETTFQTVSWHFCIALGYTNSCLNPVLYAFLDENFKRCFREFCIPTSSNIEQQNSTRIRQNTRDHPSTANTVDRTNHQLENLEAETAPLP

Broadly, the IC50 is the concentration that gives 50% inhibition. Read a low IC50 as inhibition by little substance. For the molecule `CCc1cc(F)c2nc(N3CCC(N[C@@H]4CCCC(F)(F)C4)CC3)c(-c3ccn(C)n3)c(C)c2c1` [Compound 74], in test [1], the “Selectivity (MOR/KOR)” value is “++ (between 10- and 100-fold selectivity)”; the IC50 was 1 to 10 nM. This molecule showed an IC50 in test [2] of 100 to 1000 nM.
Consider `CCc1cc(F)c2nc(N3CCC(N[C@@H]4CCOC4)CC3)c(-c3cc(C(F)(F)F)n(C)n3)c(C)c2c1` [Compound 85], for which, in test [1], the “Selectivity (MOR/KOR)” value is listed as “+++ (between 100- to 1000-fold selective)” and the IC50 lay within 10 to 100 nM. Besides, the IC50 in test [2] was > 1000 nM.
As to `CCc1cc(F)c2nc(N3CC[C@@H]4[C@@H](CCN4[C@@H]4CCCOC4)C3)c(-c3ccn(C)n3)c(C)c2c1` [Compound 124], in test [1], the “Selectivity (MOR/KOR)” value is reported as “+++ (between 100- to 1000-fold selective)” and the IC50 was 10 to 100 nM. In addition, the IC50 in test [2] is > 1000 nM.
In the same order, the values of `CCc1cc(-c2ccnn2C)c2nc(N3CCC(NCC4(F)CCC4)CC3)c(-c3ccn(C)n3)c(C)c2c1` [Compound 90] are “+++ (between 100- to 1000-fold selective)”, < 1 nM and 10 to 100 nM.
Regarding `CCc1cc(F)c2nc(N3CCN(C(=O)C4CN(C)C4)C[C@H]3C)c(-c3nc(C)no3)c(C)c2c1` [Compound 45], in test [1], the “Selectivity (MOR/KOR)” value is “++ (between 10- and 100-fold selectivity)”; the IC50 is 10 to 100 nM. Also, in test [2], the IC50 was > 1000 nM.
`CCc1cc(F)c2nc(N3CC[C@H](N[C@@H]4CCOC4)[C@@H](F)C3)c(-c3ccn(C)n3)c(C)c2c1` [Compound 195, (3S,4S)-1-(6-ethyl-8-fluoro-4-methyl-3-(1-methyl-1H-pyrazol-3-yl)quinolin-2-yl)-3-fluoro-N—((R)-tetrahydrofuran-3-yl)piperidin-4-amine]: in test [1], the “Selectivity (MOR/KOR)” value is “++++ (more than 1000-fold selectivity over MOR)” and the IC50 fell in the range of 1 to 10 nM. Besides, the IC50 in test [2] is > 1000 nM.
On to `CCN/C(=N/C#N)N1CCN(c2nc3c(F)cc(CC)cc3c(C)c2-c2ccn(C)n2)[C@H](C)C1` [Compound 10, (R,E)-N′-cyano-N-ethyl-4-(6-ethyl-8-fluoro-4-methyl-3-(1-methyl-1H-pyrazol-3-yl)quinolin-2-yl)-3-methylpiperazine-1-carboximidamide], for which, in test [1], the “Selectivity (MOR/KOR)” value was “++ (between 10- and 100-fold selectivity)”; the IC50 is ≥ 100 nM. In addition, the IC50 in test [2] is > 1000 nM.
Consider `Cc1cc(Cl)c2nc(N3CCN(CC4CCOCC4)C[C@H]3C)c(-c3nc(C)no3)c(C)c2c1` [Compound 51, (R)-5-(8-chloro-4,6-dimethyl-2-(2-methyl-4-((tetrahydro-2H-pyran-4-yl)methyl)piperazin-1-yl)quinolin-3-yl)-3-methyl-1,2,4-oxadiazole], for which, in test [1], the “Selectivity (MOR/KOR)” value was “+++ (between 100- to 1000-fold selective)” and the IC50 was in the range of 1 to 10 nM. In test [2], this molecule returned a half-maximal inhibitory concentration (IC50) of 100 to 1000 nM.
With `CCc1cc(F)c2nc(N3CCN(C[C@H]4CCCO4)C[C@H]3CC)c(-c3nc(C)no3)c(C)c2c1` [Compound 36], the “Selectivity (MOR/KOR)” value in test [1] is “++ (between 10- and 100-fold selectivity)”. Moreover, the IC50 is 10 to 100 nM in test [1] and > 1000 nM in test [2].
Take `CCc1cc(F)c2nc(N3CCN(C(=O)[C@H](C)N4CCCC4)C[C@H]3C)c(-c3nc(C)no3)c(C)c2c1` [Compound 201]: in test [1], the “Selectivity (MOR/KOR)” value is given as “+++ (between 100- to 1000-fold selective)” and the IC50 was 1 to 10 nM. In test [2], the 50% inhibitory concentration (IC50) lay in the range of 100 to 1000 nM.
As to `CCc1cc(F)c2nc(N3CCC(N[C@H]4CCOC[C@@H]4O)CC3)c(-c3cc(C)n(C)n3)c(C)c2c1` [Compound 16, (3R,4S)-4-((1-(3-(1,5-dimethyl-1H-pyrazol-3-yl)-6-ethyl-8-fluoro-4-methylquinolin-2-yl)piperidin-4-yl)amino)tetrahydro-2H-pyran-3-ol], in test [1], the “Selectivity (MOR/KOR)” value was “++ (between 10- and 100-fold selectivity)”; the concentration for half-maximal inhibition (IC50) was 1 to 10 nM. Besides, the IC50 in test [2] was 100 to 1000 nM.
As for `CCc1cc(C#N)c2nc(N3CCC(N4CCOC[C@H]4C)CC3)c(-c3ccn(C)n3)c(C)c2c1` [Compound 82], in test [1], the “Selectivity (MOR/KOR)” value was “++ (between 10- and 100-fold selectivity)”; the IC50 fell in the range of 10 to 100 nM. In test [2], the IC50 was > 1000 nM.
For `CCc1cc(F)c2nc(N3CC[C@@H](N[C@@H]4CCCOC4)[C@H](C)C3)c(-c3ccn(C)n3)c(C)c2c1` [Compound 114], in test [1], the “Selectivity (MOR/KOR)” value is “++ (between 10- and 100-fold selectivity)”; the IC50 was in the range of 1 to 10 nM. In test [2], this molecule registered an IC50 of 100 to 1000 nM.
Regarding `CCc1cc(F)c2nc(N3CC[C@@H]4[C@@H](CCN4C[C@@H]4CCCOC4)C3)c(-c3ccn(C)n3)c(C)c2c1` [Compound 128], in test [1], the “Selectivity (MOR/KOR)” value was “++ (between 10- and 100-fold selectivity)”; the IC50 is ≥ 100 nM. Besides, the IC50 in test [2] was > 1000 nM.
Turning to `CCc1cc(F)c2nc(N3CCN(C(=O)[C@@H]4CCCN4C)C[C@H]3C)c(-c3ccn(C)n3)c(C)c2c1` [Compound 175], in test [1], the “Selectivity (MOR/KOR)” value is “+++ (between 100- to 1000-fold selective)” and the IC50 lay within 10 to 100 nM. In test [2], the IC50 was > 1000 nM.
In the same order, the values of `CCc1cc(F)c2nc(N3CCN(C(=O)[C@H](C)N4CCCC4)C[C@H]3C)c(-c3nc(C)no3)c(C)c2c1` [Compound 191] are “++++ (more than 1000-fold selectivity over MOR)”, 1 to 10 nM and > 1000 nM.
For the molecule `CCc1cc(F)c2nc(N3CC[C@@H](N[C@@H]4CCCOC4)C[C@H]3C)c(-c3ccn(C)n3)c(C)c2c1` [Compound 119], in test [1], the “Selectivity (MOR/KOR)” value is “++++ (more than 1000-fold selectivity over MOR)” and the IC50 is < 1 nM. In test [2], this molecule returned an IC50 of 100 to 1000 nM.
The corresponding values for `CCc1cc(F)c2nc(N3CCN(C(=O)[C@H](C)N(CC)CC)C[C@H]3C)c(-c3ccn(C)n3)c(C)c2c1` [Compound 174] are “+++ (between 100- to 1000-fold selective)”, 10 to 100 nM and > 1000 nM.
As to `CCc1cc(F)c2nc(N3CC[C@H](NC4CCOCC4)[C@H](F)C3)c(-c3cc(C(F)(F)F)n(C)n3)c(C)c2c1` (stereo in doubt) [Compound 83], in test [1], the “Selectivity (MOR/KOR)” value is given as “+++ (between 100- to 1000-fold selective)” and the IC50 was ≥ 100 nM. Moreover, the IC50 in test [2] is > 1000 nM.
Take `CCc1cc(-c2ccnn2C)c2nc(N3CCC(N)CC3)c(-c3ccn(C)n3)c(C)c2c1` [Compound 23, 1-(6-ethyl-4-methyl-3-(1-methyl-1H-pyrazol-3-yl)-8-(1-methyl-1H-pyrazol-5-yl)quinolin-2-yl)piperidin-4-amine]: in test [1], the “Selectivity (MOR/KOR)” value is given as “+ (less than 10-fold selectivity)” and the IC50 was ≥ 100 nM. In test [2], the IC50 is > 1000 nM.
With `CCc1cc(F)c2nc(N3CC[C@@H]4[C@@H](CCN4C[C@@H]4CCCOC4)C3)c(-c3ccn(C)n3)c(C)c2c1` [Compound 133], in test [1], the “Selectivity (MOR/KOR)” value is recorded as “+++ (between 100- to 1000-fold selective)” and the IC50 is 10 to 100 nM. In addition, the IC50 in test [2] was > 1000 nM.
Consider `CCc1cc(F)c2nc(N3CCN(C(=O)CN4CC[C@@H](F)C4)C[C@H]3C)c(-c3nc(C)no3)c(C)c2c1` [Compound 149], for which, in test [1], the “Selectivity (MOR/KOR)” value was “+++ (between 100- to 1000-fold selective)” and the IC50 was 1 to 10 nM. The molecule also displayed a concentration for half-maximal inhibition (IC50) in test [2] of 100 to 1000 nM.
In the same order, the values of `CCc1cc(-c2ccn(C)n2)c2nc(N3CCNC[C@H]3C)c(-c3nc(C)no3)c(C)c2c1` [Compound 104] are “+++ (between 100- to 1000-fold selective)”, 10 to 100 nM and > 1000 nM.
On to `CCc1cc(F)c2nc(N3CC[C@H](N[C@@H]4CCOC4)[C@H](F)C3)c(-c3ccn(C)n3)c(C)c2c1` [Compound 194, (3R,4S)-1-(6-ethyl-8-fluoro-4-methyl-3-(1-methyl-1H-pyrazol-3-yl)quinolin-2-yl)-3-fluoro-N—((R)-tetrahydrofuran-3-yl)piperidin-4-amine], for which, in test [1], the “Selectivity (MOR/KOR)” value was “+++ (between 100- to 1000-fold selective)” and the IC50 was 1 to 10 nM. In test [2], the IC50 was > 1000 nM.
On to `CCc1cc(F)c2nc(N3CCN(C(=O)CN4CCCC4)C[C@H]3C)c(-c3nc(C)no3)c(C)c2c1` [Compound 47, (R)-1-(4-(6-ethyl-8-fluoro-4-methyl-3-(3-methyl-1,2,4-oxadiazol-5-yl)quinolin-2-yl)-3-methylpiperazin-1-yl)-2-(pyrrolidin-1-yl)ethan-1-one], for which, in test [1], the “Selectivity (MOR/KOR)” value is on record as “+++ (between 100- to 1000-fold selective)” and the IC50 was in the range of 1 to 10 nM. Also, the IC50 in test [2] fell in the range of 100 to 1000 nM.
For the molecule `CCc1cc(F)c2nc(N3CCN(CC4CCOCC4)[C@@H](C)C3)c(-c3nc(C)no3)c(C)c2c1` [Compound 38, (S)-5-(6-ethyl-8-fluoro-4-methyl-2-(3-methyl-4-((tetrahydro-2H-pyran-4-yl)methyl)piperazin-1-yl)quinolin-3-yl)-3-methyl-1,2,4-oxadiazole], the “Selectivity (MOR/KOR)” value in test [1] is “++ (between 10- and 100-fold selectivity)”. For the same molecule, the concentration for half-maximal inhibition (IC50) in test [1] is 10 to 100 nM; in test [2], > 1000 nM.
Take `CCc1cc(F)c2nc(N3CC[C@@H](NC[C@@H]4CCOC4)[C@@H](F)C3)c(-c3ccn(C)n3)c(C)c2c1` [Compound 204]: the “Selectivity (MOR/KOR)” value in test [1] is reported as “++++ (more than 1000-fold selectivity over MOR)”. The IC50 was < 1 nM in test [1] and 100 to 1000 nM in test [2].
Take `CCc1cc(F)c2nc(N3CCN(C(=O)[C@H](C)N(CC)CC)C[C@H]3C)c(-c3nc(C)no3)c(C)c2c1` [Compound 158]: in test [1], the “Selectivity (MOR/KOR)” value was “++++ (more than 1000-fold selectivity over MOR)” and the IC50 lay within 1 to 10 nM. Besides, the IC50 in test [2] was > 1000 nM.
